Here are results for 3 compounds from US6852735B1, “Siastatin B derivatives having a glycosidase inhibitory activity and processes for producing the same” (Zaidan Hojin Biseibutsu Kagaku Kenkyu Kai, priority 1998, dated 2005).

Experiment [1] has as its target T1, α-N-acetylgalactosaminidase (from chicken liver) (Gallus gallus, UniProt Q90744).
T1 construct: originated from chicken liver (a product of Sigma Company); purchased Sigma Company; host or cells: chicken liver
T1 sequence (Q90744 1-405): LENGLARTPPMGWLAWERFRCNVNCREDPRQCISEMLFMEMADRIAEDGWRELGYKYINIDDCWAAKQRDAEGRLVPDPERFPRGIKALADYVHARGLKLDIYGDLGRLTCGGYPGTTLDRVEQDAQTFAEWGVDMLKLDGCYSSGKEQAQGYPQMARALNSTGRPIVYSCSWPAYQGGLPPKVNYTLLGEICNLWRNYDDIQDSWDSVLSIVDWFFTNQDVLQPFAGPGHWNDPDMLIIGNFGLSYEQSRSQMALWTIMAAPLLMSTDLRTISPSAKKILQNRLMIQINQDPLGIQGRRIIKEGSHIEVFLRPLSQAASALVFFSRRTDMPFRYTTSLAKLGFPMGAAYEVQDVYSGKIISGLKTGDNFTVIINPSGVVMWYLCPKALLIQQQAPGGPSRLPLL
Description: α-N-acetylgalactosaminidase inhibition (Test Example 1). In kind it is biochemical. The conditions noted are these: for IC50: α-N-acetylgalactosaminidase from chicken liver, substrate p-nitrophenyl-N-acetyl-α-D-galactosaminide, pH 4.0, 37° C., 30 minutes, read-out: 50% inhibiory concentration (IC50) Enzyme A (converted). On the procedure:
This Test Example is a test example for determining the N-acetylgalactosaminidase-inhibitory activity of the compound of the formula (I), (V) or (X) according to this invention.
Assay of the N-acetylgalactosaminidase-inhibitory activity was conducted according to a modification of the method described in the “Journal of Biological Chemistry”, 252, pp.5194-5200(1977).
(§1) Thus, 0.5 mL of 0.025M citrate-phosphate buffer (pH 4.0), 0.1 mL of the same buffer containing 10 mM p-nitro-phenyl-N-acetyl-α-D-galactosaminide dissolved therein, and 0.1 mL of either water or an aqueous solution containing as the test compound any one of the compounds of the formulae (I), (V) and (X) according to this invention were mixed with each other and pre-incubated in a 96-wells titer plate at 37° C. for 10 minutes. After the completion of the pre-incubation, to the pre-incubated mixture was added 0.01 mL of 0.025 M citrate-phosphate buffer containing α-N-acetyl-galactosaminidase originated from chicken liver (a product of Sigma Company) which was dissolved in said buffer as a glycosidase to be tested. Thereafter, the enzymatic reaction was conducted at 37° C. for 30 minutes.
(§2) After the enzymatic reaction, to the reaction solution was added 1.0 mL of 0.3M glycine—sodium hydroxide buffer (pH 10.5), in order to terminate the enzymatic reaction. Thereafter, the absorbance [designated as value (a)] of light at 405 nm of the resulting reaction solution was measured. Concurrently, measurement was made of the absorbance [designated as value (b)] at 405 nm of the reaction solution as obtained in the control test where the enzymatic reaction was conducted without addition of the test compound. Further, measurements were made of the absorbance [designated as values (a′)] and the absorbance [[designated as values (b′)] at 405 nm of the solutions as obtained in the blank test and the control test, respectively, where the enzymatic reaction was not conducted in the assay test. The rate of inhibition to […] was calculated by the equation: [1-(a-a′)/(b-b′)]×100.
(§3) The test results obtained are summarized as IC50 value in Table 1 below.

Experiment [2] concerns β-D-glucosidase (from almond). Description: β-glucosidase inhibition (Test Example 4). Type of experiment: biochemical. The following applies: for inhibition of β-D-glucosidase, in words: summary of Table 1; for 50% inhibiory concentration (IC50) Enzyme E: β-D-glucosidase from almond, substrate p-nitrophenyl-β-D-glucoside. How it is done: as §1, §2, §3
This Test Example is a test example for determining the α-glucosidase or β-glucosidase-inhibitory activity of the compound of the formula (I), (V) or (X) according to this invention.
The evaluation of the β-glucosidase-inhibitory activity was conducted according to a modification of the method described in the “Agricultural and Biological Chemistry”, 26, p.203 (1962).
Namely, the test was conducted in the same manner as the test for the enzyme-inhibitory activity described in Test Example 1, but with using α-glucosidase originated from yeast or β-glucosidase originated from almond (both enzymes are products of Sigma Company) as the glycosidase enzyme, and with using p-nitro-phenyl-α-D-glucoside or p-nitrophenyl-β-D-glucoside as the substrate. Furthermore, absorbances of light were measured in the same manner as in Test Example 1, and IC50 values of the test compound capable of giving the 50% inhibition to the enzyme were calculated.

As for `O=C(N[C@H]1NC[C@H](CO)[C@H](O)[C@@H]1O)C(F)(F)F` [Formula (I), 6-deacetamido-3-decarboxy-3-hydroxymethyl-6-trifluoroacetamido-siastain B], the “inhibition of N-acetyl-galactosaminidase, in words” value in experiment [1] (summary of Table 1) is reported as “inhibit strongly”. In addition, the IC50 in experiment [1] is 2.52 µM. In experiment [2], the “inhibition of β-D-glucosidase, in words” value was “inhibit strongly” and the “50% inhibiory concentration (IC50) Enzyme E” value is 0.14 µg/mL.
On to `CC(=O)NC1NCC(CO)C(O)C1O` (stereo not drawn) [Formula (V), 3-decarboxy-4-epi-3-hydroxymethyl-siastain B], for which the IC50 in experiment [1] is over 490 µM. Further, in experiment [2], the “inhibition of β-D-glucosidase, in words” value was “inhibit strongly” and the “50% inhibiory concentration (IC50) Enzyme E” value was determined as 1.4 µg/mL.
For `O=C(N[C@H]1NC[C@H](CO)[C@@H](O)[C@@H]1O)C(F)(F)F` [Formula (X), 6-deacetamido-3-decarboxy-4-epi-3-hydroxymethyl-6-trifluoroacetamido-siastain B] the same measures were over 387 µM, “inhibit strongly” and 0.13 µg/mL.
